Experimental data published in patent publication US20090311237A1, “Combination therapy using a soluble hyaluronidase and a bisphosphonate” (priority 2008, published 2009).
Like-named read-outs stand apart in the source and are kept apart here.

Assay: Phase 1 Stage 1 clinical pharmacokinetics of SC ZA co-administered with rHuPH20
Type: in vivo, human
Details: human, serum, sc; for AUC(0-t): AUC (0-48 h); for AUC(0-t) / Cmax / AUC(0-inf) / Tmax: ZA […] SC; for AUC(0-inf): read-out: AUC (0-inf); for Tmax: read-out: Tmax; for concentration at 0 h: 0 h post infusion; for concentration at 10 min: 10 min post infusion; for concentration at 0.5 h: 0.5 h post infusion; for concentration at 1 h: 1 h post infusion; for concentration at 2 h: 2 h post infusion; for concentration at 4 h: 4 h post infusion; for concentration at 6 h: 6 h post infusion; for concentration at 8 h: 8 h post infusion
Protocol: A pharmacokinetic study of zoledronic acid (ZA) co-administered with rHuPH20 in human subjects was conducted. The primary objective of the study was to determine the bioavailability of zoledronic acid dosed via subcutaneous (SC) co-administration with human recombinant hyaluronidase PH20 (rHuPH20). […] The patients were administered the prescribed dosage formulations as follows: Cohorts 1-5 were administered a single subcutaneous infusion in a dosage volume of 100 ml at a rate of 3 mL/min. […] The dosing solution is administered via needle or catheter into the SC space of the left anterior thigh (midway between the anterior iliac crest and the cephalad border of the patella). For cohorts 1-5, the dosing solutions were administered by a controlled rate infusion pump at approximately 3 mL/minute. […] The dosing solutions were administered by syringe push bolus injection. […] Serum concentration of ZA was determined using a qualified LC-MS-MS assay after derivatization with diazomethane (Zhu, L S et al. (2006) Rapid Commun. […] The assay range was from 2.0 to 400 ng/mL with a lower limit of quantitation (LLOQ) at 2.0 ng/mL. […] Non-compartmental analysis was used for derivation of primary and secondary pharmacokinetic (PK) parameters. […] Summary statistics (mean, standard deviation, and median) were calculated using JMP or Microsoft Excel.

[1] = Subj 21, inf 0.556 hr, PH20 24000 U
[2] = Subj 25, inf 0.549 hr, PH20 23736 U
[3] = Subj 31, inf 0.554 hr, PH20 23952 U
[4] = Subj 32, inf 0.556 hr, PH20 24000 U
[5] = Subj 51, inf 0.251 hr, PH20 6024 U
[6] = Subj 1, inf 0.554 hr, PH20 23928 U
[7] = Subj 8, inf 0.531 hr, PH20 22944 U
[8] = Subj 11, inf 0.554 hr, PH20 23928 U
[9] = Subj 16, inf 0.553 hr, PH20 23904 U
[10] = ZA 0.25 mg SC infusion + 24000 Units rHuPH20, individual subjects, read-out: Zoledronic Acid Concentration
[11] = ZA 0.25 mg SC infusion + 24000 Units rHuPH20, n=3, read-out: Mean Conc.
[12] = ZA 0.25 mg SC infusion + 24000 Units rHuPH20, n=3, read-out: Median Conc.
[13] = ZA 0.5 mg SC infusion + 24000 Units rHuPH20, individual subjects, read-out: Zoledronic Acid Concentration
[14] = ZA 0.5 mg SC infusion + 24000 Units rHuPH20, n=3, read-out: Mean Conc.
[15] = ZA 0.5 mg SC infusion + 24000 Units rHuPH20, n=3, read-out: Median Conc.

In the case of `O=P(O)(O)C(O)(Cn1ccnc1)P(=O)(O)O` [ZA, 1-hydroxy-2-(1H-imidazol-1-yl)ethylidene-1,1-bisphosphonic acid], the AUC(0-t) (Subj 18, inf […], PH20 23304 U) is reported as 69.8 ng·h/mL, the AUC(0-t) [1] is reported as 66.1 ng·h/mL and the AUC(0-t) [2] is reported as 115 ng·h/mL. For the same compound, the AUC(0-t) (Subj 26, inf […], PH20 23088 U) was 150 ng·h/mL, the AUC(0-t) [3] was 234 ng·h/mL and the AUC(0-t) [4] was 277 ng·h/mL. The AUC(0-t) [5] was 471 ng·h/mL, the AUC(0-t) (Subj 77, inf […], PH20 6000 U) was 618 ng·h/mL and the Cmax [6] was 7.75 ng/mL. For the same compound, the AUC(0-inf) [6] was 29.9 ng·h/mL, the Tmax [6] was 1.02 h and the Cmax [7] was 5.67 ng/mL. It also gave an AUC(0-inf) [7] of 32.6 ng·h/mL, a Tmax [7] of 1.41 h and a Cmax [8] of 6.84 ng/mL. The AUC(0-inf) [8] was 30.8 ng·h/mL, the Tmax [8] was 1.25 h and the Cmax [9] was 15.3 ng/mL. The AUC(0-inf) [9] was 62.5 ng·h/mL, the Tmax [9] was 0.8 h and the Cmax (Subj 18, inf […], PH20 23304 U) was 17.1 ng/mL. For the same compound, the AUC(0-inf) (Subj 18, inf […], PH20 23304 U) was 68.1 ng·h/mL, the Tmax (Subj 18, inf […], PH20 23304 U) was 1.29 h and the Cmax [1] was 14.2 ng/mL. For the same compound, the AUC(0-inf) [1] was 64.3 ng·h/mL, the Tmax [1] was 1.31 h and the Cmax [2] was 30.1 ng/mL. For the same compound, the AUC(0-inf) [2] was 117 ng·h/mL, the Tmax [2] was 1.3 h and the Cmax (Subj 26, inf […], PH20 23088 U) was 33.4 ng/mL. The AUC(0-inf) (Subj 26, inf […], PH20 23088 U) was 153 ng·h/mL, the Tmax (Subj 26, inf […], PH20 23088 U) was 1.03 h and the Cmax [3] was 53 ng/mL. The AUC(0-inf) [3] was 239 ng·h/mL, the Tmax [3] was 1.54 h and the Cmax [4] was 58.7 ng/mL. It also gave an AUC(0-inf) [4] of 295 ng·h/mL, a Tmax [4] of 1.56 h and a Cmax [5] of 95.4 ng/mL. It also gave an AUC(0-inf) [5] of 508 ng·h/mL, a Tmax [5] of 0.52 h and a Cmax (Subj 77, inf […], PH20 6000 U) of 147 ng/mL. It also gave an AUC(0-inf) (Subj 77, inf […], PH20 6000 U) of 678 ng·h/mL, a Tmax (Subj 77, inf […], PH20 6000 U) of 0.75 h and a concentration at 0 h [10] of 4.5 ng/mL. It also gave a concentration at 0 h [11] of 4.74 ng/mL, a concentration at 0 h [12] of 4.69 ng/mL and a concentration at 10 min [10] of 7.43 ng/mL. The concentration at 10 min [11] was 5.76 ng/mL, the concentration at 10 min [12] was 4.97 ng/mL and the concentration at 0.5 h [10] was 7.75 ng/mL. For the same compound, the concentration at 0.5 h [11] was 6.39 ng/mL, the concentration at 0.5 h [12] was 6.25 ng/mL and the concentration at 1 h [10] was 7.25 ng/mL. For the same compound, the concentration at 1 h [11] was 6.51 ng/mL, the concentration at 1 h [12] was 6.6 ng/mL and the concentration at 2 h [10] was 5.42 ng/mL. For the same compound, the concentration at 2 h [11] was 5.06 ng/mL, the concentration at 2 h [12] was 5.42 ng/mL and the concentration at 4 h [10] was 2.56 ng/mL. It also gave a concentration at 4 h [11] of 3.02 ng/mL, a concentration at 4 h [12] of 3.06 ng/mL and a concentration at 6 h [10] of 1.2 ng/mL. The concentration at 6 h [11] was 1.52 ng/mL, the concentration at 6 h [12] was 1.35 ng/mL and the concentration at 8 h [10] was 0.56 ng/mL. It also gave a concentration at 8 h [11] of 0.82 ng/mL, a concentration at 8 h [12] of 0.79 ng/mL and a concentration at 0 h [13] of 10.8 ng/mL. It also gave a concentration at 0 h [14] of 11.8 ng/mL, a concentration at 0 h [15] of 11.1 ng/mL and a concentration at 10 min [13] of 15 ng/mL. The concentration at 10 min [14] was 15 ng/mL, the concentration at 10 min [15] was 15 ng/mL and the concentration at 0.5 h [13] was 13.8 ng/mL. For the same compound, the concentration at 0.5 h [14] was 14.4 ng/mL, the concentration at 0.5 h [15] was 13.8 ng/mL and the concentration at 1 h [13] was 14.1 ng/mL. For the same compound, the concentration at 1 h [14] was 14.3 ng/mL, the concentration at 1 h [15] was 14.1 ng/mL and the concentration at 2 h [13] was 11.1 ng/mL. For the same compound, the concentration at 2 h [14] was 11.1 ng/mL, the concentration at 2 h [15] was 11.1 ng/mL and the concentration at 4 h [13] was 5.27 ng/mL. It also gave a concentration at 4 h [14] of 5.72 ng/mL, a concentration at 4 h [15] of 5.87 ng/mL and a concentration at 6 h [13] of 2.5 ng/mL. It also gave a concentration at 6 h [14] of 2.69 ng/mL.
